Source: patent US20250296956A1, “POLYPEPTIDE, PREPARATION METHOD, AND USE THEREOF” (Hunan University, priority 2022, published 2025)
Each block holds one compound with its values, some of them ahead of it. Bridge positions count the residues as written; N and C are the ends. Ends that are not written are not given here. Peptide text beside a SMILES is read from it.

Legend:
RNA methylation = assay: Determination of RNA methylation (m6A) in prostate cancer cells, dot blot; format: cell-based, human; details: PC3 and DU145 cells, 12 hours
Description: In FIG. 3, MB is methylene blue staining, and m^6A is methylation content. 500 ng and 3000 ng are the loaded sample amounts of RNA in the experiment.

METTL3 = molecular target: T1, METTL3 (Homo sapiens, UniProt Q86U44); assay: Inhibition of METTL3 expression in prostate cancer cells, immunoblot; format: cell-based; details: PC3 and DU145 cells, 20 μM, 24 hours
T1 construct: endogenous in cells; host or cells: PC3 and DU145 cells
T1 sequence (Q86U44 2-580 limits assumed): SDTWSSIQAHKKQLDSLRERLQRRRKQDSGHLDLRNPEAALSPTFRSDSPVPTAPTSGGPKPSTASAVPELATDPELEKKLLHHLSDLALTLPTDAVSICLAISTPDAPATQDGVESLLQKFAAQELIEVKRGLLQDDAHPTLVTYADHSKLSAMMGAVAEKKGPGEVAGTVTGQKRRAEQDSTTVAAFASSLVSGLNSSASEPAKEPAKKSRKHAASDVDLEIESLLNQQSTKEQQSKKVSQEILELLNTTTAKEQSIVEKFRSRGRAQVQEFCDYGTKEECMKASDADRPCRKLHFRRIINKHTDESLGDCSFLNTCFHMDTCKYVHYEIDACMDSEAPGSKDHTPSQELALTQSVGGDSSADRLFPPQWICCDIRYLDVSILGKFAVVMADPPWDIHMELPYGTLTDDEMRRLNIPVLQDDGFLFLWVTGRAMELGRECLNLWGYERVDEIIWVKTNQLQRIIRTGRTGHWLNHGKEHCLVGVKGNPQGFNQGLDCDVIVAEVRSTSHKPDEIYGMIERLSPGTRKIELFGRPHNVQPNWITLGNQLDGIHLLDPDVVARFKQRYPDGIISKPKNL
Description: Referring to FIG. 4, a certain amount of polypeptide was weighed and dissolved into a 50 mM mother solution, the polypeptides R9, RM3, and RSM3 were prepared into a 50 mM mother solution with sterile pure water, after gradient dilution, the mother solution were added to a 6-well plate with PC3 and DU145 cells pre-laid, the final concentration of the polypeptide was 20 μM, 2 mL per well, and three replicates were used for each concentration. After 24 hours of treatment, the cells were lysed to extract cell proteins, and the proteins were separated by electrophoresis and transferred to a PVDF membrane, to incubate the primary antibody and secondary antibody of METTL3, and finally exposed for imaging.
In FIG. 4, GAPDH is an internal reference in the immunoblotting experiment (WB experiment).

PC3 cells = assay: Growth/proliferation inhibition, CCK-8 and clone formation, PC3; format: cell-based, human; details: for effect of inhibiting cell growth after combining with the cell-penetrating peptide R9: CCK-8, 24 hours, peptide connected with R9
Description: (§1) 5.1 Referring to FIG. 5A, the polypeptides R9, RM3, and RSM3 were prepared into a 50 mM mother solution with sterile pure water, and the mother solution was gradiently diluted with a basal culture medium, the diluted peptide solution was added to 96-well plates pre-laid with PC3 and DU145 cells, 100 μL per well, and three replicates for each concentration. After 24 h of treatment, the OD value at 450 nm was measured with a CCK-8 kit, and the results were calculated and analyzed.
(§2) FIG. 5B illustrates a clone formation experiment, the grown PC3 and DU145 cells were digested with 0.25% trypsin and the number of cells were counted, 300 cells were added to each well of the six-well plate, and 2 ml of complete culture medium was added to continue culturing for 24 hours. M3, R9, RM3, and RSM3 were added to each well and cultured for 7 days, the medium was discarded, the cells were washed, stained with crystal violet, and then microscopically photographed, and the number of the cells were counted.
(§3) Referring to FIG. 6, the above two polypeptides were prepared into a 50 mM mother solution with sterile pure water, and then gradiently diluted with a basal culture medium, the diluted peptide solution was added to a 96-well plate pre-laid with PC3 and DU145 cells, 100 μL per well, and three replicates for each concentration. After 24 hours of treatment, the OD value was measured at 450 nm using CCK-8, and the obtained values were calculated.

DU145 cells = assay: Growth/proliferation inhibition, CCK-8 and clone formation, DU145; format: cell-based, human; details: for effect of inhibiting cell growth after combining with the cell-penetrating peptide R9: CCK-8, 24 hours, peptide connected with R9
Description: as §1, §2, §3

[1] = Drug safety assessment in vivo, blood indexes; design: species or system C57BL/C mice; details: 50 mg/kg intraperitoneal once, 24 hours; for platelets (PLT) / red blood cells (RBC) / white blood cells (WBC) in the blood: compared with R9 and PBS; for white blood cells (WBC) in the blood / hemoglobin (HMGB): within the normal range
Description: Referring to FIGS. 7A to 7H, (A) drug safety assessment in vivo: C57BL/C mice raised for 7 weeks were intraperitoneally injected with a dose of 50 mg/kg (R9, RM3, RSM3) once, after 24 hours, the mice were sacrificed and the blood of the mice was taken to measure indexes such as white blood cells, platelets, red blood cells, and hemoglobin, to analyze toxicity of the drug to normal animals.

[2] = test system: PC3 prostate cancer cells with high expression of METTL3; assay: Anti-tumor experiment in vivo, PC3 prostate tumor-bearing mouse model; design: species or system BALB/c nude mice; details: for body weight changes: tumor model mice
Description: (B) Anti-tumor experiment in vivo: a prostate tumor-bearing mouse model is selected, the specific steps to construct the animal model are as follows: PC3 prostate cancer cells with high expression of METTL3 were cultured to a logarithmic growth phase, the PC3 prostate cancer cells were digested, collected, and prepared into a cell suspension with a concentration of 1×10^7 cells/mL. 4 to 6 week-old male and female BALB/c nude mice were taken, and were injected with 100 μL of cell suspension into the back of the hind limbs, to establish a tumor model. After a diameter of the mouse tumor grows to about 0.5 cm, the mice were randomly divided into groups according to the experimental requirements: PBS, R9, RM3, RSM3, etc. Peritumoral administration is performed on the mice, once every two days, for two consecutive weeks.

[3] = test system: DU145 (human prostate cancer cells); details: for inhibitory effect on the proliferation of prostate cancer cells DU145: DU145, 48 hours, MTT; for effect of mutation of R9-MPF13 on the anti-proliferative effect: relative to R9-MPF13
Description: 5.2 Some of the polypeptides in Table 1 were prepared into a 10 mM mother solution with sterile pure water, and the mother solution is gradiently diluted with a basal culture medium, the diluted polypeptide solution was added to 96-well plates with DU145 cells pre-laid, 100 μL per well, and four replicates for each concentration. After 48 hours of treatment, the modified MTT kit was used to treat and measure the OD value at 580 nm, and the results were calculated and analyzed.
(§4) The experiment method includes: the polypeptide was prepared into a 10 mM mother solution with sterile pure water, and after gradient dilution with a basal culture medium, the diluted polypeptide solution was added to a 96-well plate with various cells pre-laid, 100 μL per well, and four replicates for each concentration. After 48 hours of treatment, the modified MTT kit was used to treat and measure the OD value at 580 nm, and the results are calculated and analyzed.

METTL3 and METTL14 = METTL3 and METTL14 (Homo sapiens, UniProt Q86U44); assay: Binding to METTL3 and METTL14 proteins in vitro
METTL3 and METTL14, sequence (Q86U44 whole entry, species assumed): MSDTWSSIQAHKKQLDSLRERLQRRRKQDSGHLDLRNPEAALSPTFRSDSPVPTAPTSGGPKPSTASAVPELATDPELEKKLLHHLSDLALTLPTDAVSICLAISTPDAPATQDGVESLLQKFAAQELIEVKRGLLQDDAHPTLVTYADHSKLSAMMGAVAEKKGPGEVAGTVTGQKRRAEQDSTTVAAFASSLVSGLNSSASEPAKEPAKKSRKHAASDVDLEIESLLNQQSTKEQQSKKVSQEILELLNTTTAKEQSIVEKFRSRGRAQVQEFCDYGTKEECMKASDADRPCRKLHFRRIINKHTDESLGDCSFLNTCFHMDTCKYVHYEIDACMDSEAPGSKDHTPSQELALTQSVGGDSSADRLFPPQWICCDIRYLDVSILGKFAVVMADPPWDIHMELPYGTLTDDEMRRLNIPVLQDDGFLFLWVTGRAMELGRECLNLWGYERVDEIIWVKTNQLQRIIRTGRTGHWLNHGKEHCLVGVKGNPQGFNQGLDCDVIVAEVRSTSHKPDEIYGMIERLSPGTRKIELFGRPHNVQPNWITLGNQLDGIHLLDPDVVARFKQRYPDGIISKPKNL

[4] = test system: SaoS2 (human osteosarcoma cells); details: 48 h
Description: as §4

[5] = test system: HepG2 (human hepatoblastoma cells); details: 48 h
Description: as §4

[6] = test system: HCT116 (colorectal cancer cell line); details: 48 h
Description: as §4

[7] = test system: A375 (human malignant melanoma); details: 48 h
Description: as §4

[8] = test system: Hela (human anterior cervical cancer cells); details: 48 h
Description: as §4

[9] = test system: A549 (lung cancer human alveolar basal epithelial cells); details: 48 h
Description: as §4

[10] = test system: K562 (human chronic myeloid leukemia cells); details: 48 h
Description: as §4

[11] = test system: OVCAR-3 (ovarian adenocarcinoma cells); details: 48 h
Description: as §4

[12] = CCK-8 24 h, clone formation 7 days
[13] = peritumoral administration once every two days for two weeks

Compound: RSM3: stapled peptide from RM3, 10th and 17th cysteines connected through 4,4-bis(bromomethyl)biphenyl (RRRRRRRRRCMELGRECLNLW; linker 10-17 via 4,4‑bis(bromomethyl)biphenyl)
- inhibition of RNA methylation (m6A) (RNA methylation): better in terms of stability and methylation inhibition effect
- inhibition of RNA methylation (m6A) (RNA methylation; listed as R SM3): significantly inhibit the RNA methylation
- inhibition of the expression of METTL3 (METTL3): inhibit the expression of METTL3
- inhibitory effect on the growth of prostate cancer cells (PC3 cells; [12]): good inhibitory effect
- inhibitory effect on the growth of prostate cancer cells (DU145 cells; [12]): good inhibitory effect
- platelets (PLT) [1]: no significant effect
- red blood cells (RBC) [1]: no significant effect
- white blood cells (WBC) in the blood [1]: slightly increased this index
- hemoglobin (HMGB) [1]: a certain reducing effect
- tumor mass ([2]; compared with R9 group and PBS, peritumoral administration once every two days for two weeks): significantly less
- effect of inhibiting the growth of prostate tumors ([2]; overall comparison of the METTL3 polypeptide inhibitors): more effective
- tumor volume changes [2, 13]: significantly inhibit the increase in tumor volume
- body weight changes [2, 13]: no significant effect on the body weight

Compound: RRRRRRRRRRKWCLGRELLCLW (stapled peptide precursor) [Polypeptide R9-PSRKWL]
- inhibitory effect on the proliferation of prostate cancer cells DU145 [3]: better inhibitory effect

Compound: FGRPHNVQ [Polypeptide M2, tested after being connected with the cell-penetrating peptide R9]
- effect of inhibiting cell growth after combining with the cell-penetrating peptide R9 (PC3 cells): certain effect of inhibiting cell growth
- effect of inhibiting cell growth after combining with the cell-penetrating peptide R9 (DU145 cells): certain effect of inhibiting cell growth

Compound: CSCC[C@H](NC(=O)[C@H](CS)NC(=O)[C@H](CCCNC(=N)N)NC(=O)[C@H](CCCNC(=N)N)NC(=O)[C@H](CCCNC(=N)N)NC(=O)[C@H](CCCNC(=N)N)NC(=O)[C@H](CCCNC(=N)N)NC(=O)[C@H](CCCNC(=N)N)NC(=O)[C@H](CCCNC(=N)N)NC(=O)[C@H](CCCNC(=N)N)NC(=O)[C@@H](N)CCCNC(=N)N)C(=O)N[C@@H](CCC(=O)O)C(=O)N[C@@H](CC(C)C)C(=O)NCC(=O)N[C@@H](CCCNC(=N)N)C(=O)N[C@@H](CCC(=O)O)C(=O)N[C@@H](CS)C(=O)N[C@@H](CC(C)C)C(=O)N[C@@H](CC(N)=O)C(=O)N[C@@H](CC(C)C)C(=O)N[C@@H](Cc1c[nH]c2ccccc12)C(N)=O [RM3] (H-RRRRRRRRRCMELGRECLNLW-NH2)
- platelets (PLT) [1]: no significant effect
- red blood cells (RBC) [1]: no significant effect
- white blood cells (WBC) in the blood [1]: slightly increased this index
- hemoglobin (HMGB) [1]: a certain reducing effect
- body weight changes [2, 13]: no significant effect on the body weight

Compound: RRRRRRRRRRKMELGREMLNLW [Polypeptide R9-RKM]
- effect of mutation of R9-MPF13 on the anti-proliferative effect [3]: enhance the anti-proliferative effect

Compound: RRRRRRRRRRRMELGRELLNLW [Polypeptide R9-RRL]
- effect of mutation of R9-MPF13 on the anti-proliferative effect [3]: enhance the anti-proliferative effect

Compound: RRRRRRRRRRAMELGRECLNLA [Polypeptide R9-RA]
- effect of mutation of R9-MPF13 on the anti-proliferative effect [3]: weaken the anti-proliferative effect

Compound: QLQRIIRTGRTGHWLNHG [Polypeptide M1, tested after being connected with the cell-penetrating peptide R9]
- effect of inhibiting cell growth after combining with the cell-penetrating peptide R9 (PC3 cells): certain effect of inhibiting cell growth
- effect of inhibiting cell growth after combining with the cell-penetrating peptide R9 (DU145 cells): certain effect of inhibiting cell growth

- binding to the proteins of METTL3 and METTL14 (METTL3 and METTL14): can bind
Compound: ELGRECLNLW [Polypeptide M3]

- IC50 ([3]; 48 h): < 11 µM
- IC50 [4]: < 11 µM
- IC50 [5]: < 11 µM
- IC50 [6]: < 11 µM
- IC50 [7]: < 11 µM
- IC50 [8]: < 11 µM
- IC50 [9]: < 11 µM
- IC50 [10]: < 11 µM
- IC50 [11]: < 11 µM
Compound: RRRRRRRRRRKMELGRELLNLW-NH2 (C-terminus assumed) [Polypeptide R9-RKL]
- inhibitory effect on the proliferation of prostate cancer cells DU145 [3]: better inhibitory effect
- effect of mutation of R9-MPF13 on the anti-proliferative effect [3]: enhance the anti-proliferative effect

Compound: RRRRRRRRRRKWELGRELLNLW [Polypeptide R9-RKWL]
- inhibitory effect on the proliferation of prostate cancer cells DU145 [3]: better inhibitory effect
- effect of mutation of R9-MPF13 on the anti-proliferative effect [3]: enhance the anti-proliferative effect

Compound: RRRRRRRRRRKMELGREFLNLW [Polypeptide R9-RKF]
- effect of mutation of R9-MPF13 on the anti-proliferative effect [3]: enhance the anti-proliferative effect

Compound: RRRRRRRRRRAMEEGRECLNLW [Polypeptide R9-RE]
- effect of mutation of R9-MPF13 on the anti-proliferative effect [3]: weaken the anti-proliferative effect

Compound: RRRRRRRRRRKMELGREYLNLW [Polypeptide R9-RKY]
- effect of mutation of R9-MPF13 on the anti-proliferative effect [3]: enhance the anti-proliferative effect
